The values below are quoted from earlier work in patent US20220249374A1, “RADIOTHERAPEUTIC MICROSPHERES” (priority 2019, published 2022).

For this data set, the system named is HCC. To be noted: patients with HCC too advanced for resection or localized ablation.

Each structure is given as a SMILES string.

As for `CNC(=O)c1cc(Oc2ccc(NC(=O)Nc3ccc(Cl)c(C(F)(F)F)c3)cc2)ccn1` [Nexavar, sorafenib], the prolongation of survival entry is “three”.
